Where a name gives a salt, the structure may show the parent alone. Read-outs that look alike come from different tables or passages of the source.
Columns and labels:
[1] = Solubility test for several solid acid addition salts; format: physicochemical
Description: The Solubility Test for Several Solid Acid Addition Salt
In general, it is necessary for a drug with good bioavailability to have a good solubility. Typically, the desired solubility of a drug in a pH range of 1-7.5 is at least 1 mg/ml.

wistar rat [2] = experiment: Arteriovenous shunt thrombosis in polyethylene tube method (weight of thrombosis); format: in vivo; conditions: oral gavage, consecutive 3 days, 2 hours after the last administration, shunt lasted 15 min, wet or dry weight not stated
Description: II. Investigation on the Weight of Thrombosis
(§1) Animal: wistar rat, 220-260 g in weight, male, 6-8 each group.
Grouping: the same as above.
Method: Arteriovenous shunt thrombosis in polyethylene tube method.
Index Observed The drug was administrated for consecutive 3 days. 2 hours after the last administration, arteriovenous anastomosis thrombosis was lasted for 15 min, the wet weight and dry weight of the thrombosis formed was investigated.

wistar rat [3] = experiment: Current injury carotid artery thrombosis method (time of thrombosis formation); format: in vivo; conditions: oral gavage, consecutive 3 days, 2 hours after the last administration
Description: To compare the pharmacologic effect between the screened salts and the free compound of formula I, the following arterial thrombosis test was carried out with clopidogrel as the positive drug.
I. Investigation on the Time of Thrombosis Formation,
as §1
Grouping: control group, positive drug group (clopidogrel, 10 mg/kg), free compound of formula I, hydrochloride of the compound of formula I and L-camphor sulfonate of the compound of formula I (two dosages for each group, 3 and 9 mg/kg respectively based on the free compound of formula I).
Method: current injury carotid artery thrombosis method and platelet aggregation test.
Drug Administration: oral gavage.
Index observed: the drug was administrated for consecutive 3 days. 2 hours after the last administration, current injury carotid artery thrombosis method was carried out to observe the time of thrombosis formation. Femoral artery blood was sampled and separated to obtain the platelet. The effect on platelet aggregation was investigated with inducing agent ADP for each group, and at the same time, the bleeding time was determined.

[4] = Stability of the free compound in aqueous solution with weak acid or base; format: physicochemical; conditions: presence of weak acid or base in an aqueous solution for a period of time; produces degradation products
[5] = Water solubility of the free compound (inventor's research); format: physicochemical
[6] = Accelerated stability test of the sulfonates formulated into tablets or capsules; format: physicochemical; conditions: tablets or capsules with excipients, 50° C.±2° C., relative humid of 75% ±5%, end of the third month, TLC, stable = no occurrence of impurity
Description: A solid active ingredient with excellent stability is necessary for a solid formulation. To screen a suitable salt with chemical stability, the sulfonates prepared above was formulated into tablets or capsules with powdered excipients. The tablets included microcrystalline cellulose and anhydrous calcium dihydrogen phosphate with a ratio of 1:1. The capsules included Mannitol and Corn starch with a ratio of 4:1. And then, the tablets and the capsules were placed at the temperature of 50° C.±2° C. (incubator with constant temperature and humidity) with relative humid of 75% ±5% (saturated sodium chloride solution) for accelerated test. Sampling at the end of the third month, the tablets and the capsules were crushed and extracted with methanol:chloroform (1:1), and TLC was used to check the stability of the product and the salt was deemed as stable with no occurrence of impurity.

[7] = 3 mg/kg based on the free compound of formula I
[8] = 9 mg/kg based on the free compound of formula I

Row | SMILES | Weight of thrombosis (wistar rat [2]; [7]) | Weight of thrombosis (wistar rat [2]; [8]) | Thrombosis formation time (wistar rat [3]; [7]) | Thrombosis formation time (wistar rat [3]; [8]) | Solubility [1] | Stability [6] | also measured
1 | COC(=O)C(c1ccccc1Cl)N1CCc2sc(OC(=O)c3ccccc3OC(C)=O)cc2C1 (centres unmarked) [Benzenesulfonate] | – | – | – | – | – | – | Solubility ([1]; read-out: Solubility): 2500 µg/mL
2 | COC(=O)[C@H](c1ccccc1Cl)N1CCc2sccc2C1 [Clopidogrel, clopidogrel, reference compound] | – | – | – | – | – | – | Weight of thrombosis (wistar rat [2]; 10 mg/kg): 3.2 ± 0.5 mg; Thrombosis formation time (wistar rat [3]; 10 mg/kg): 249.9 ± 58.0 s
3 | COC(=O)C(c1ccccc1Cl)N1CCc2sc(OC(=O)c3ccccc3OC(C)=O)cc2C1 (centres unmarked) [Free Base, methyl 2-(2-chlorophenyl)-2-(2-acetyl-salicylic acyloxy-4,5,6,7-tetrahydro-thieno[3,2-C]pyridine)-5-acetate] | 4.0 ± 0.6 mg | 3.0 ± 0.5#,& mg | 165 ± 22.4 s | 261 ± 54.3#,& s | – | – | Stability (in words) [4]: not stable enough; Water solubility (in words) [5]: almost insoluable in water
4 | COC(=O)C(c1ccccc1Cl)N1CCc2sc(OC(=O)c3ccccc3OC(C)=O)cc2C1 (centres unmarked) [Hydrobromide] | – | – | – | – | 500 µg/mL | – | –
5 | COC(=O)C(c1ccccc1Cl)N1CCc2sc(OC(=O)c3ccccc3OC(C)=O)cc2C1 (centres unmarked) [Hydrochloride] | 3.2 ± 0.7#,Y mg | 2.8 ± 0.5 mg | 210.4 ± 51.1 s | 319.6 ± 35.2#,H,&,Y s | 20 µg/mL | – | –
6 | COC(=O)C(c1ccccc1Cl)N1CCc2sc(OC(=O)c3ccccc3OC(C)=O)cc2C1 [L-camphor sulfonate] | 3.0 ± 0.7#,Y mg | 2.5 ± 0.4 H,&,Y mg | 250.4 ± 35.2 ,Y,* s | 360.2 ± 55.9#,H,&,Y,* s | 4700 µg/mL | Stable | Stability ([6]; listed as camphor sulfonate): the most stable one
7 | COC(=O)C(c1ccccc1Cl)N1CCc2sc(OC(=O)c3ccccc3OC(C)=O)cc2C1 (centres unmarked) [Methanesulfonate] | – | – | – | – | 8200 µg/mL | Stable | –
8 | COC(=O)C(c1ccccc1Cl)N1CCc2sc(OC(=O)c3ccccc3OC(C)=O)cc2C1 (centres unmarked) [P-toluenesulfonate] | – | – | – | – | 1200 µg/mL | Stable | –

— patent US9556196B2, “Anti-platelet compound addition salt” (GUANGZHOU HEERSHI PHARMA DEVELOPMENT CO., LTD, priority 2011, dated 2017)
